System: 429239-143-T-J1-PDC complex spheroid viability
Experiment: Anticancer human tumor 429239-143-T-J1-PDC patient-derived small cell lung carcinoma cell line growth inhibition [POLQ]
Conditions: for IC50: curve of first compound; for viability, T/C: stronger effect = lower value
Outline: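 Patient-derived tumour cells were co-cultured with HUVEC and mesenchymal stem cells as multicellular spheroids at 37 °C. They were treated with POLQ inhibitors (novobiocin, ART-558, RP6685) alone or combined with other agents. Top concentrations were at or near clinical Cmax (otherwise 10 microM; SN-38 at 1 microM), decreasing in half-log steps.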

[1] = second compound 0.0316 µM, first compound 0.0316 µM
[2] = second compound 0.0316 µM, first compound 0.1 µM
[3] = second compound 0.0316 µM, first compound 0.316 µM
[4] = second compound 0.0316 µM, first compound 1 µM
[5] = second compound 0.0316 µM, first compound 3.16 µM
[6] = second compound 0.0316 µM, first compound 10 µM
[7] = second compound 0.1 µM, first compound 0.0316 µM
[8] = second compound 0.1 µM, first compound 0.1 µM
[9] = second compound 0.1 µM, first compound 0.316 µM
[10] = second compound 0.1 µM, first compound 1 µM
[11] = second compound 0.1 µM, first compound 3.16 µM
[12] = second compound 0.1 µM, first compound 10 µM
[13] = second compound 0.316 µM, first compound 0.0316 µM
[14] = second compound 0.316 µM, first compound 0.1 µM
[15] = second compound 0.316 µM, first compound 0.316 µM
[16] = second compound 0.316 µM, first compound 1 µM
[17] = second compound 0.316 µM, first compound 3.16 µM
[18] = second compound 0.316 µM, first compound 10 µM
[19] = second compound 1 µM, first compound 0.0316 µM
[20] = second compound 1 µM, first compound 0.1 µM
[21] = second compound 1 µM, first compound 0.316 µM
[22] = second compound 1 µM, first compound 1 µM
[23] = second compound 1 µM, first compound 3.16 µM
[24] = second compound 1 µM, first compound 10 µM
[25] = second compound 3.16 µM, first compound 0.0316 µM
[26] = second compound 3.16 µM, first compound 0.1 µM
[27] = second compound 3.16 µM, first compound 0.316 µM
[28] = second compound 3.16 µM, first compound 1 µM
[29] = second compound 3.16 µM, first compound 3.16 µM
[30] = second compound 3.16 µM, first compound 10 µM
[31] = second compound 10 µM, first compound 0.0316 µM
[32] = second compound 10 µM, first compound 0.1 µM
[33] = second compound 10 µM, first compound 0.316 µM
[34] = second compound 10 µM, first compound 1 µM
[35] = second compound 10 µM, first compound 3.16 µM
[36] = second compound 10 µM, first compound 10 µM
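Note: luminescence signal used as surrogate measure of viable cells; spheroids exposed to compounds for seven days before readout.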
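Throughout, for viability, T/C: 100% = DMSO vehicle control viability as luminescence relative to vehicle.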

Nc1ccn(C2OC(CO)C(O)C2(F)F)c(=O)n1 (centres undefined) + Cc1cccc(N(C)C(=O)C2C(O)CCN2c2nc(C)cc(C(F)(F)F)c2C#N)c1
IC50 (second compound 0.0316 µM): < 0.0316 µM
IC50 (second compound 0.1 µM): < 0.0316 µM
IC50 (second compound 0.316 µM): < 0.0316 µM
IC50 (second compound 1 µM): < 0.0316 µM
IC50 (second compound 3.16 µM): < 0.0316 µM
IC50 (second compound 10 µM): < 0.0316 µM
viability, T/C [1]: 19.2%
viability, T/C [2]: 20.4%
viability, T/C [3]: 17.1%
viability, T/C [4]: 18%
viability, T/C [5]: 18.3%
viability, T/C [6]: 17.3%
viability, T/C [7]: 20.3%
viability, T/C [8]: 20%
viability, T/C [9]: 15.1%
viability, T/C [10]: 20.4%
viability, T/C [11]: 18%
viability, T/C [12]: 16.5%
viability, T/C [13]: 18.5%
viability, T/C [14]: 16.1%
viability, T/C [15]: 18.6%
viability, T/C [16]: 20.8%
viability, T/C [17]: 19.3%
viability, T/C [18]: 17.1%
viability, T/C [19]: 21.8%
viability, T/C [20]: 16.5%
viability, T/C [21]: 18.2%
viability, T/C [22]: 16.6%
viability, T/C [23]: 17.2%
viability, T/C [24]: 17.5%
viability, T/C [25]: 25.2%
viability, T/C [26]: 17.2%
viability, T/C [27]: 21.9%
viability, T/C [28]: 18.5%
viability, T/C [29]: 15.5%
viability, T/C [30]: 18.3%
viability, T/C [31]: 24.9%
viability, T/C [32]: 15.6%
viability, T/C [33]: 20.8%
viability, T/C [34]: 17.9%
viability, T/C [35]: 20.2%
viability, T/C [36]: 19.4%

O=c1[nH]cc(F)c(=O)[nH]1 + Cc1cccc(N(C)C(=O)C2C(O)CCN2c2nc(C)cc(C(F)(F)F)c2C#N)c1
IC50 (second compound 0.0316 µM): > 10 µM
IC50 (second compound 0.1 µM): 6.82 µM
IC50 (second compound 0.316 µM): > 10 µM
IC50 (second compound 1 µM): 9.33 µM
IC50 (second compound 3.16 µM): > 10 µM
IC50 (second compound 10 µM): 9.51 µM
viability, T/C [1]: 108%
viability, T/C [2]: 109%
viability, T/C [3]: 101%
viability, T/C [4]: 105%
viability, T/C [5]: 65.9%
viability, T/C [6]: 54.5%
viability, T/C [7]: 106%
viability, T/C [8]: 92.3%
viability, T/C [9]: 104%
viability, T/C [10]: 91.1%
viability, T/C [11]: 61.4%
viability, T/C [12]: 44.4%
viability, T/C [13]: 96.6%
viability, T/C [14]: 112%
viability, T/C [15]: 101%
viability, T/C [16]: 104%
viability, T/C [17]: 56.5%
viability, T/C [18]: 50.8%
viability, T/C [19]: 105%
viability, T/C [20]: 110%
viability, T/C [21]: 120%
viability, T/C [22]: 87.8%
viability, T/C [23]: 72.4%
viability, T/C [24]: 47.7%
viability, T/C [25]: 95.9%
viability, T/C [26]: 97.2%
viability, T/C [27]: 114%
viability, T/C [28]: 78.2%
viability, T/C [29]: 56.5%
viability, T/C [30]: 47.6%
viability, T/C [31]: 98.7%
viability, T/C [32]: 93.9%
viability, T/C [33]: 97.5%
viability, T/C [34]: 83.9%
viability, T/C [35]: 65%
viability, T/C [36]: 49.2%
